Laboratory results taken from patent US5792784A, “Coupling product obtained from histamine and an amino acid” (Babizhayev; Marc, priority 1993, dated 1998).

Key:
[1] = "Peroxidase" type activity on liposome model: reduction of phosphatidylcholine hydroperoxides (PC-OOH); assay type: biochemical
Protocol: The "peroxidase" type activity also has been evaluated on a "liposome" model. The phosphatidylcholine hydroperoxides (PC-OOH) are prepared according to a similar procedure to the one already described for the linoleic acid monoperoxide.
The peroxide species reduction is followed by dosing the remaining peroxides according to the method laid down by Hicks M and Gebicki J. M.--Anal. Biochem, vol 99, (1979), p. 249-253.

cataract = assay: Cataract patients: modification of the visual acuity at the end of 24 months; assay type: in vivo; settings: 24 months
Text: This example concerns the utilization of the β-alanyl-histamine to treat patients affected by cataract.
The study has been designed for a prospective evaluation of the modifications of the lens opacity in patients effected by cataract. All the patients have undergone an initial ophtalmic examination. It involved the making of the medical historical record of the patient, a measurement of the visual acuity at a maximum correction, direct or indirect ophtalmoscopies, an evaluation of the opacities with the slit lamp, a clinical grading of the lens after maximal mydriasis, a classification according to the cataract type, and lens pictures by retroillumination. Moreover, samples of blood have been taken at the beginning, then in follow-up for chemical analysis.
The general view has allowed to establish the initial state of patients before the treatment (definition of "base line").
Follow-up of ophtalmic examinations were carried out every two weeks for two months, then every month. They included maximum visual acuity after correction, direct or indirect ophtalmoscopies, a slit lamp examination, and after a maximum dilation of the pupil (excluding patients with primary open-angle glaucoma), a clinical lens grading, a classification of the cataract. Pictures also have been taken on lens observed by retroillumination or with the slit lamp.
In this study, differents groups have been determined, to be seen:
A group reference 1, with non-treated patients (5 patients, 7 eyes) […]
A group 3, has been submitted to the same treatment than the group 2, stimulated by an "attack type of treatment" during the first two weeks: 2 subcon-junctival junctival injections twice a week of 0.10 to 0.15 ml of the saline defined for the group 2 (3 patients, 4 eyes).
A group 4, which was given a local dose by way of an eye drop of isotonic saline twice a day (5 patients 7 eyes), the group 4 being like the group 1, a reference group.
Following the protocol described above, we determine the values of the optic density of the lens according to its opacity as well as the visual acuity, and the whole for 24 months. Considering these two parameters, we obtain tables giving results concerning the modification of the visual acuity at the end of 24 months in Tables 1 and 2, and the results concerning the modification of the visual opacity at the end of 24 months in Tables 3 and 4.

[2] = Tests with peroxidized compounds: reducing behaviour; assay type: biochemical
[3] = groups 2 and 3, start acuity 20/30
[4] = groups 2 and 3, start acuity 20/40
[5] = groups 2 and 3, start acuity 20/50
[6] = groups 2 and 3, start acuity 20/70
[7] = groups 2 and 3, start acuity 20/100
[8] = groups 2 and 3, total of 19 eyes

SMILES: NCCC(=O)NCCc1c[nH]cn1 [β-alanyl-histamine]
- number of moles of PC-OOH reduced/initial number of moles of PC/hour ([1]; 10 mM): 0.77 × 10^-3 moles of PC-OOH reduced/initia
- number of moles of PC-OOH reduced/initial number of moles of PC/hour ([1]; 25 mM): 1.56 × 10^-3 moles of PC-OOH reduced/initia
- improvement of the visual acuity + (number of eyes) (cataract; groups 2 and 3, start acuity 20/25): 1 eyes
- improvement of the visual acuity + (number of eyes) (cataract; [3]): 1 eyes
- improvement of the visual acuity ++ (number of eyes) (cataract; [3]): 4 eyes
- improvement of the visual acuity + (number of eyes) (cataract; [4]): 1 eyes
- improvement of the visual acuity ++ (number of eyes) (cataract; [4]): 3 eyes
- improvement of the visual acuity + (number of eyes) (cataract; [5]): 1 eyes
- improvement of the visual acuity ++ (number of eyes) (cataract; [5]): 1 eyes
- improvement of the visual acuity + (number of eyes) (cataract; [6]): 1 eyes
- improvement of the visual acuity ++ (number of eyes) (cataract; [6]): 1 eyes
- improvement of the visual acuity ++ (number of eyes) (cataract; [7]): 1 eyes
- improvement of the visual acuity +++ (number of eyes) (cataract; [7]): 2 eyes
- regression of the visual acuity ++ (number of eyes) (cataract; [7]): 1 eyes
- improvement of the visual acuity ++ (number of eyes) (cataract; groups 2 and 3, start acuity 20/200): 1 eyes
- improvement of the visual acuity + (number of eyes) (cataract; [8]): 5 eyes
- improvement of the visual acuity ++ (number of eyes) (cataract; [8]): 11 eyes
- improvement of the visual acuity +++ (number of eyes) (cataract; [8]): 2 eyes
- regression of the visual acuity + (number of eyes) (cataract; [8]): 0 eyes
- regression of the visual acuity ++ (number of eyes) (cataract; [8]): 1 eyes
- regression of the visual acuity +++ (number of eyes) (cataract; [8]): 0 eyes
- improvement of the vision and regression of cataract (cataract; two parameters: visual acuity and opacity): very significant in the improvement of the vision and the regression of cataract
- reducing behaviour towards peroxidized compounds [2]: behaves in a way comparable to β-alanyl-histidine or carnosine
